Laboratory results: PubChem BioAssay (NCI)
Values joined by “and” are separate entries in the source; they are usually repeats but may differ in a detail not shown here. Identical values can stand only once.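 Test compounds were applied to cells in 96-well plates for 48 hours at 5 doses. GI50 marks 50% less growth. TGI denotes the concentration required for complete inhibition of growth.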

Columns and labels:
Experiment in all cases: NCI tumour cell line growth inhibition, 48 h
EKVX NSCLC = test system: EKVX NSCLC
HL-60(TB) leukemia = test system: HL-60(TB) leukemia
K-562 leukemia = test system: K-562 leukemia
LOX IMVI melanoma = test system: LOX IMVI melanoma
NCI-H226 lung = test system: NCI-H226 lung
SK-MEL-28 melanoma = test system: SK-MEL-28 melanoma
SK-MEL-5 melanoma = test system: SK-MEL-5 melanoma
SNB-19 CNS = test system: SNB-19 CNS
UACC-257 melanoma = test system: UACC-257 melanoma
UACC-62 melanoma = test system: UACC-62 melanoma

| SMILES | GI50 (EKVX NSCLC) | TGI (EKVX NSCLC) | GI50 (HL-60(TB) leukemia) | TGI (HL-60(TB) leukemia) | GI50 (K-562 leukemia) | TGI (K-562 leukemia) | GI50 (LOX IMVI melanoma) | TGI (LOX IMVI melanoma) | GI50 (NCI-H226 lung) | TGI (NCI-H226 lung) | GI50 (SK-MEL-28 melanoma) | TGI (SK-MEL-28 melanoma) | GI50 (SK-MEL-5 melanoma) | TGI (SK-MEL-5 melanoma) | GI50 (SNB-19 CNS) | TGI (SNB-19 CNS) | GI50 (UACC-257 melanoma) | TGI (UACC-257 melanoma) | GI50 (UACC-62 melanoma) | TGI (UACC-62 melanoma) |
| --- | --- | --- | --- | --- | --- | --- | --- | --- | --- | --- | --- | --- | --- | --- | --- | --- | --- | --- | --- | --- |
| N#Cc1c(N)nc(N)nc1N[C@H](c1nc2c(F)ccc(Cl)c2c(=O)n1-c1cccnc1)C1CC1 | 1.88 µM | 37.2 µM | 2.28 µM | 82.8 µM | 31.8 µM | > 100 µM | 5.51 µM | 20.1 µM | 15.5 µM | > 100 µM | 7.23 µM | > 100 µM | 8.33 µM | 21.9 µM | 13 µM | 28.6 µM | 8.18 µM | > 100 µM | 1.6 µM | > 100 µM |
| Nc1nc(N)c2c(n1)NC(c1ccccc1)C1CCc3ccccc3C1=N2 (stereo not drawn) | 2.68 µM | 15.1 µM | 2.37 µM | 6.01 µM | 3.42 µM | – | 3.79 µM | 15.1 µM | 5.96 µM | 28.9 µM | 7.72 µM | 20.2 µM | 0.638 µM | 2.25 µM | 15.6 µM | 29.8 µM | 3.72 µM | 15 µM | 3.11 µM | 18.2 µM |
| Cc1[nH]c(-c2nc3ccccc3[nH]2)c(C)c1C(=O)NC(C)C1CCCCC1 (stereo not drawn) | 11.4 µM | 23.7 µM | 3.36 µM | 13.1 µM | 3.45 µM | > 100 µM | 10 µM | 29.7 µM | 13.9 µM | 37.3 µM | 10.4 µM | 23.5 µM | 10.3 µM | 22.3 µM | 10.6 µM | 24.8 µM | 13.2 µM | 33.3 µM | 6.95 µM | 21.6 µM |
| C/C(=N\NC(=S)N1CC2CCC(CC2)C1)c1cccc(C)n1 | 0.326 µM | 4.63 µM | 0.00016 µM | 4.45 µM | < 0.0001 µM | – | 0.179 µM | 8.16 µM | – | 7.73 µM | – | 17.7 µM | 0.287 µM | 13.7 µM | 0.26 µM | 14.3 µM | 0.68 µM | 9.8 µM | – | 6.85 µM |
| Cc1cc2nc3cc(C)c(N)cc3[n+](-c3ccccc3)c2cc1N | 2.48 µM | > 100 µM | 4.92 µM | > 100 µM | 3.39 µM | > 100 µM | 4.78 µM | > 100 µM | 6.23 µM | > 69.4 µM | 15.2 µM | 79.3 µM | 0.773 µM | 5.4 µM | 2.06 µM | > 100 µM | 1.85 µM | 12 µM | 6.19 µM | 30.7 µM |
| NC(N)=Nc1nc2ccc([N+](=O)[O-])cc2[nH]1 | – | > 100 µM | – | > 100 µM | – | > 100 µM | – | > 100 µM | – | > 100 µM | – | > 100 µM | – | > 100 µM | – | > 100 µM | – | > 100 µM | – | > 100 µM |
| CCCNC(=O)c1ccc(Cl)cc1Cl | > 100 µM | > 100 µM | > 100 µM | > 100 µM | > 100 µM | > 100 µM | > 100 µM | > 100 µM | > 100 µM | > 100 µM | > 100 µM | > 100 µM | > 100 µM | > 100 µM | > 100 µM | > 100 µM | > 100 µM | > 100 µM | > 100 µM | > 100 µM |
| C=C(CC(=O)O)C(=O)O (tested in a mixture with another compound) | 40.6 µg/mL | > 50 µg/mL | 8.94 µg/mL | 17.2 µg/mL | > 50 µg/mL | > 50 µg/mL | > 50 µg/mL | > 50 µg/mL | > 50 µg/mL | > 50 µg/mL | > 50 µg/mL | > 50 µg/mL | > 50 µg/mL | > 50 µg/mL | > 50 µg/mL | > 50 µg/mL | > 50 µg/mL | > 50 µg/mL | > 50 µg/mL | > 50 µg/mL |
| COCCN1CCN(Cc2ccc(-c3n[nH]c4c3C(=O)c3c(NC(=O)NN5CCOCC5)cccc3-4)cc2)CC1 | 0.0348 µM | – | 0.00888 µM | 0.0453 µM | 0.032 µM | > 10 µM | 0.0185 µM | 0.12 µM | 0.0329 µM | > 2.46 µM | 0.0246 µM | 0.471 µM | 0.0269 µM | – | 0.0298 µM | > 10 µM | 0.0336 µM | 0.281 µM | 0.0145 µM | 0.0462 µM |
| COC(=O)N/N=C(/CCC(=O)Nc1ccc(C)c(C)c1)CC(=O)C(C)(C)C | – | > 100 µM | – | > 100 µM | – | > 100 µM | – | > 100 µM | – | > 100 µM | – | > 100 µM | – | > 100 µM | – | > 100 µM | – | > 100 µM | – | > 100 µM |
| CC(C)n1nc(-c2ccc3oc(N)nc3c2)c2c(N)ncnc21 | 0.0159 µM | 0.225 µM | 0.0869 µM and 0.168 µM | 12.3 µM and 11.2 µM | 0.0431 µM and 0.0376 µM | > 100 µM | 0.0127 µM and 0.0174 µM | 1.33 µM and 1.64 µM | < 0.01 µM | 0.371 µM and 0.231 µM | < 0.0108 µM | 0.189 µM | 0.0171 µM and < 0.0114 µM | 0.143 µM and 0.0865 µM | 0.0336 µM and 0.027 µM | 1.94 µM and 1.33 µM | < 0.0123 µM and 0.0137 µM | 0.145 µM and 0.121 µM | < 0.01 µM | 0.0317 µM and 0.049 µM |
| CCOC(=N)CC(=O)Nc1cccc(Cl)c1 | – | > 100 µM | – | > 100 µM | – | > 100 µM | – | > 100 µM | – | > 100 µM | – | > 100 µM | – | > 100 µM | – | > 100 µM | – | > 100 µM | – | > 100 µM |
| Cc1ccc(C2=Nc3c(N)ncnc3NC(c3ccc4c(c3)OCO4)C2)cc1 (stereo not drawn) | 16.2 µM | > 100 µM | 0.718 µM | > 100 µM | 4.19 µM | > 100 µM | 6.38 µM | 25 µM | 12.6 µM | 47.9 µM | 10.2 µM | 38 µM | 3.85 µM | 37.5 µM | 38.2 µM | > 100 µM | 40 µM | > 100 µM | 4.09 µM | > 100 µM |
| CCC(=O)Nc1ccccc1C#C/C=C\C#Cc1ccccc1C(F)(F)F | 1.06 µM | 25.2 µM | 1.18 µM | > 10.4 µM | 2.29 µM | > 50 µM | 5.14 µM | > 50 µM | 6.91 µM | > 50 µM | 3.65 µM | > 50 µM | 5.44 µM | 18.1 µM | 5.52 µM | > 50 µM | 7.17 µM | > 45.2 µM | 2.38 µM | > 50 µM |
